We go through one molecule from US11345912B2, “Directed evolution of multivalent glycopeptides that tightly bind to target proteins” (Brandeis University, priority 2013, dated 2022).

This experiment concerns 2G12. Description: Binding curve and KD determination of 2G12-glycopeptide interaction (radiolabeled glycopeptide, protein G magnetic bead capture, scintillation counting). The conditions noted are these: Table 4, error = standard error of fit. Put shortly: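 Radiolabeled glycopeptide (<4 pmol) from PURE-system translation with click glycosylation was incubated with 100 nM 2G12 at room temperature. Complexes were captured on protein G beads and eluted at 70° C. Bound and unbound fractions were counted by scintillation, run at least in triplicate, and KD derived from binding curves.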

Turning to `CC[C@H](C)[C@H](NC(=O)[C@H](CCC(=O)O)NC(=O)CNC(=O)[C@H](Cc1c[nH]c2ccccc12)NC(=O)[C@@H](NC(=O)[C@@H](NC(=O)[C@@H]1CCCN1C(=O)[C@H](CCc1cn(C2CCC(OC3O[C@H](CO[C@H]4O[C@H](CO[C@H]5O[C@H](CO)[C@@H](O)[C@H](O)[C@@H]5O[C@H]5O[C@H](CO)[C@@H](O)[C@H](O)[C@@H]5O)[C@@H](O)[C@H](O[C@H]5O[C@H](CO)[C@@H](O)[C@H](O)[C@@H]5O[C@H]5O[C@H](CO)[C@@H](O)[C@H](O)[C@@H]5O)[C@@H]4O)[C@@H](O)[C@H](O[C@H]4O[C@H](CO)[C@@H](O)[C@H](O)[C@@H]4O[C@H]4O[C@H](CO)[C@@H](O)[C@H](O)[C@@H]4O[C@H]4O[C@H](CO)[C@@H](O)[C@H](O)[C@@H]4O)[C@@H]3O)CC2)nn1)NC(=O)[C@H](CC(C)C)NC(=O)[C@H](Cc1ccc(O)cc1)NC(=O)[C@@H](NC(=O)[C@H](Cc1ccc(O)cc1)NC(=O)[C@@H](NC(=O)[C@@H]1CCCN1C(=O)[C@@H](NC(=O)[C@H](CO)NC(=O)[C@H](CC(C)C)NC(=O)[C@H](CCc1cn(C2CCC(OC3O[C@H](CO[C@H]4O[C@H](CO[C@H]5O[C@H](CO)[C@@H](O)[C@H](O)[C@@H]5O[C@H]5O[C@H](CO)[C@@H](O)[C@H](O)[C@@H]5O)[C@@H](O)[C@H](O[C@H]5O[C@H](CO)[C@@H](O)[C@H](O)[C@@H]5O[C@H]5O[C@H](CO)[C@@H](O)[C@H](O)[C@@H]5O)[C@@H]4O)[C@@H](O)[C@H](O[C@H]4O[C@H](CO)[C@@H](O)[C@H](O)[C@@H]4O[C@H]4O[C@H](CO)[C@@H](O)[C@H](O)[C@@H]4O[C@H]4O[C@H](CO)[C@@H](O)[C@H](O)[C@@H]4O)[C@@H]3O)CC2)nn1)NC(=O)[C@H](CCCNC(=N)N)NC(=O)[C@H](Cc1ccccc1)NC(=O)[C@@H]1CCCN1C(=O)[C@H](CC(N)=O)NC(=O)[C@@H](NC(=O)[C@H](CC(N)=O)NC(=O)[C@@H](NC(=O)[C@H](CO)NC(=O)[C@@H](NC(=O)[C@@H](NC(=O)[C@@H](NC(=O)[C@@H]1CCCN1C(=O)[C@H](CC(C)C)NC(=O)[C@@H](NC(=O)[C@H](CCc1cn(C2CCC(OC3O[C@H](CO[C@H]4O[C@H](CO[C@H]5O[C@H](CO)[C@@H](O)[C@H](O)[C@@H]5O[C@H]5O[C@H](CO)[C@@H](O)[C@H](O)[C@@H]5O)[C@@H](O)[C@H](O[C@H]5O[C@H](CO)[C@@H](O)[C@H](O)[C@@H]5O[C@H]5O[C@H](CO)[C@@H](O)[C@H](O)[C@@H]5O)[C@@H]4O)[C@@H](O)[C@H](O[C@H]4O[C@H](CO)[C@@H](O)[C@H](O)[C@@H]4O[C@H]4O[C@H](CO)[C@@H](O)[C@H](O)[C@@H]4O[C@H]4O[C@H](CO)[C@@H](O)[C@H](O)[C@@H]4O)[C@@H]3O)CC2)nn1)NC=O)C(C)C)[C@@H](C)O)[C@@H](C)CC)[C@@H](C)CC)[C@@H](C)O)C(C)C)[C@@H](C)CC)[C@@H](C)O)[C@@H](C)O)[C@@H](C)CC)[C@@H](C)O)C(=O)NCC(=O)N[C@@H](CO)C(=O)NCC(=O)N[C@@H](CO)C(=O)N[C@@H](CC(C)C)C(=O)NCC(=O)N[C@@H](Cc1c[nH]cn1)C(=O)N[C@@H](Cc1c[nH]cn1)C(=O)N[C@@H](Cc1c[nH]cn1)C(=O)N[C@@H](Cc1c[nH]cn1)C(=O)N[C@@H](Cc1c[nH]cn1)C(=O)N[C@@H](Cc1c[nH]cn1)C(=O)N[C@@H](CCCNC(=N)N)C(=O)N[C@@H](CC(=O)O)C(=O)N[C@@H](Cc1ccc(O)cc1)C(=O)N[C@@H](CCCCN)C(=O)N[C@@H](CC(=O)O)C(=O)N[C@@H](CC(=O)O)C(=O)N[C@@H](CC(=O)O)C(=O)N[C@@H](CC(=O)O)C(=O)N[C@@H](CCCCN)C(=O)O` (some centres unmarked) [Clone 10V8, XVLPTIISTNVNPFRXLSIPTYTYLXPITWGEI], the “Fmax [%]” value (maximal fraction bound from curve fit) is 94 ± 2.0%. The Kd (usually the concentration at which binding is half-saturated) (ribosomally translated radiolabeled glycopeptide with His6/FLAG tag, room temperature, fit Fbound=(Fmax[2G12])/(KD+[2G12])) was determined as 4.6 ± 0.34 nM.
